What was measured:
[1] = n-octanol-phosphate buffer apparent distribution coefficient, log D of the compound at pH 7.4 by shake flask method; assay type: physicochemical
[2] = Half life in Sprague-Dawley rat brain homogenate at 2.075 mg/mL; assay type: ADME, tissue-based
[3] = Half life in human plasma at 2.05 mg/mL; assay type: ADME, cell-free

logD [1]	half-life [2]	half-life [3]	SMILES
0.5	1.33 h	2 h	N[C@@H](Cc1c[nH]c2ccccc12)C(=O)NCCc1ccc(O)c(O)c1
0.18	3.22 h	0.767 h	CC(C)C[C@H](N)C(=O)NCCc1ccc(O)c(O)c1
